Measurements reported in patent publication US4507318A, “1-Aryl 2-aminomethyl cyclopropane carboxylates (Z) as drugs in the treatment of pain” (Pierre Fabre S.A., priority 1981, dated 1985).
Counter-ions that a name gives are not always drawn.

Assays:
[1] = Solubility in DMA; type: physicochemical
[2] = Solubility in water; type: physicochemical

SMILES: CCOC(=O)[C@]1(c2ccccc2)C[C@@H]1CN(C)C1CCCCC1 (relative stereo) [Example 19, Fumarate of 1-phenyl 1-ethoxycarbonyl 2-N-methyl-N-cyclohexyl-aminomethyl cyclopropane (Z)]
- Solubility in DMA [1]: 5%
- Solubility in water (in words) [2]: insoluble in water
